Where two headings read alike, the source gives them in different places.
Tests used:
Assay in all cases: Test of herbicidal activities (greenhouse pot method)
Type in all cases: in vivo
Setaria viridis = settings: for inhibition at 300 g/ha: Setaria viridis, 360 h, read-out: Herbicidal activity Setaria viridis (inhibition level)
Method in brief: (§1)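 Greenhouse pot test at a single dose of 300 g ai./h, applied by spray tower pre- or post-emergence, with grasses at the 2-leaf stage, in triplicate with a blank control. Plants were kept at 15–30 °C. Inhibition was graded after 15 days: A 90–100%, B 80–<90%, C 60–<80%, D 50–<60%, E <50%.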

Echinochloa crusgalli = settings: for inhibition at 300 g/ha: Echinochloa crus-galli, 360 h, read-out: Herbicidal activity Echinochloa crusgalli (inhibition level)
Method in brief: as §1

Amaranthus retroflexus = settings: for inhibition at 300 g/ha: Amaranthus retroflexus, 360 h, read-out: Herbicidal activity Amaranthus retroflexus (inhibition level)
Method in brief: as §1

Digiatria sanguinalis = settings: for inhibition at 300 g/ha: 360 h, read-out: Herbicidal activity Digiatria sanguinalis (inhibition level)
Method in brief: as §1

Brassica juncea = settings: for inhibition at 300 g/ha: Brassica juncea, 360 h, read-out: Herbicidal activity Brassica juncea (inhibition level)
Method in brief: as §1

Chenopodium album = settings: for inhibition at 300 g/ha: Chenopodium album, 360 h, read-out: Herbicidal activity Chenopodium album (inhibition level)
Method in brief: as §1

[1] = single dose 300 g ai./h, treated before/after germination, 15 days later, greenhouse pot

Structure (SMILES)	Herbicidal activity Setaria viridis (inhibition level) (Setaria viridis; [1])	Herbicidal activity Echinochloa crusgalli (inhibition level) (Echinochloa crusgalli; [1])	Herbicidal activity Amaranthus retroflexus (inhibition level) (Amaranthus retroflexus; [1])	Herbicidal activity Digiatria sanguinalis (inhibition level) (Digiatria sanguinalis; [1])	Herbicidal activity Brassica juncea (inhibition level) (Brassica juncea; [1])	Herbicidal activity Chenopodium album (inhibition level) (Chenopodium album; [1])	also measured
CSc1nc2cc(-n3nc(C)n(C(F)F)c3=O)c(F)cc2s1 [Compound 90]	A (90 ≦ A ≦ 100%)	B (80 ≦ B < 90%)	A (90 ≦ A ≦ 100%)	A (90 ≦ A ≦ 100%)	A (90 ≦ A ≦ 100%)	A (90 ≦ A ≦ 100%)	–
CCCCSc1nc2cc(-n3nc(C)n(C(F)F)c3=O)c(F)cc2s1 [Compound 91]	A (90 ≦ A ≦ 100%)	A (90 ≦ A ≦ 100%)	A (90 ≦ A ≦ 100%)	A (90 ≦ A ≦ 100%)	A (90 ≦ A ≦ 100%)	C (60 ≦ C < 80%)	–
CCCSc1nc2cc(-n3nc(C)n(C(F)F)c3=O)c(F)cc2s1 [Compound 92]	C (60 ≦ C < 80%)	B (80 ≦ B < 90%)	A (90 ≦ A ≦ 100%)	B (80 ≦ B < 90%)	A (90 ≦ A ≦ 100%)	E (E < 50%)	–
CCOC(=O)CSc1nc2cc(-n3nc(C)n(C(F)F)c3=O)c(F)cc2s1 [Compound 93, Ethyl 1-{5-[4-difluoromethyl-3-methyl-5-oxo-4,5-dihydro-1,2,4-triazol-1-yl]-6-fluorobenzo[d]thiazol-2-ylthio}acetate]	–	–	–	–	–	–	inhibition at 300 g/ha (Setaria viridis): 80 to 90%; inhibition at 300 g/ha (Echinochloa crusgalli): 90 to 100%; inhibition at 300 g/ha (Amaranthus retroflexus): 90 to 100%; inhibition at 300 g/ha (Digiatria sanguinalis): 90 to 100%; inhibition at 300 g/ha (Brassica juncea): 90 to 100%; inhibition at 300 g/ha (Chenopodium album): 90 to 100%
C=CCSc1nc2cc(-n3nc(C)n(C(F)F)c3=O)c(F)cc2s1 [Compound 94]	A (90 ≦ A ≦ 100%)	A (90 ≦ A ≦ 100%)	B (80 ≦ B < 90%)	A (90 ≦ A ≦ 100%)	B (80 ≦ B < 90%)	B (80 ≦ B < 90%)	–
CCOC(=O)C(C)Sc1nc2cc(-n3nc(C)n(C(F)F)c3=O)c(Cl)cc2s1 (stereo not drawn) [Compound 95]	A (90 ≦ A ≦ 100%)	A (90 ≦ A ≦ 100%)	A (90 ≦ A ≦ 100%)	A (90 ≦ A ≦ 100%)	D (50 ≦ D < 60%)	B (80 ≦ B < 90%)	–
CSc1nc2cc(-n3nc(C)n(C(F)F)c3=O)c(Cl)cc2s1 [Compound 96]	C (60 ≦ C < 80%)	B (80 ≦ B < 90%)	B (80 ≦ B < 90%)	B (80 ≦ B < 90%)	B (80 ≦ B < 90%)	B (80 ≦ B < 90%)	–
CCCCSc1nc2cc(-n3nc(C)n(C(F)F)c3=O)c(Cl)cc2s1 [Compound 97]	C (60 ≦ C < 80%)	B (80 ≦ B < 90%)	B (80 ≦ B < 90%)	C (60 ≦ C < 80%)	B (80 ≦ B < 90%)	B (80 ≦ B < 90%)	–
CCOC(=O)CSc1nc2cc(-n3nc(C)n(C(F)F)c3=O)c(Cl)cc2s1 [Compound 98]	–	–	–	–	–	–	inhibition at 300 g/ha (Setaria viridis; [1]): 90 to 100%; inhibition at 300 g/ha (Echinochloa crusgalli; [1]): 90 to 100%; inhibition at 300 g/ha (Amaranthus retroflexus; [1]): 90 to 100%; inhibition at 300 g/ha (Digiatria sanguinalis; [1]): 90 to 100%; inhibition at 300 g/ha (Brassica juncea; [1]): 90 to 100%; inhibition at 300 g/ha (Chenopodium album; [1]): 80 to 90%
C=CCSc1nc2cc(-n3nc(C)n(C(F)F)c3=O)c(Cl)cc2s1 [Compound 99]	B (80 ≦ B < 90%)	A (90 ≦ A ≦ 100%)	B (80 ≦ B < 90%)	B (80 ≦ B < 90%)	B (80 ≦ B < 90%)	C (60 ≦ C < 80%)	–
CCCSc1nc2cc(-n3nc(C)n(C(F)F)c3=O)c(Cl)cc2s1 [Compound 100]	C (60 ≦ C < 80%)	B (80 ≦ B < 90%)	A (90 ≦ A ≦ 100%)	B (80 ≦ B < 90%)	A (90 ≦ A ≦ 100%)	A (90 ≦ A ≦ 100%)	–
Cc1nn(-c2cc3nc([S+]([O-])Cc4cccc(Cl)c4)sc3cc2F)c(=O)n1C (stereo not drawn) [Compound 103]	B (80 ≦ B < 90%)	E (E < 50%)	A (90 ≦ A ≦ 100%)	B (80 ≦ B < 90%)	D (50 ≦ D < 60%)	A (90 ≦ A ≦ 100%)	–
Cc1ccccc1C[S+]([O-])c1nc2cc(-n3nc(C)n(C(F)F)c3=O)c(F)cc2s1 (stereo not drawn) [Compound 104]	C (60 ≦ C < 80%)	C (60 ≦ C < 80%)	A (90 ≦ A ≦ 100%)	C (60 ≦ C < 80%)	A (90 ≦ A ≦ 100%)	A (90 ≦ A ≦ 100%)	–
Cc1ccc(C[S+]([O-])c2nc3cc(-n4nc(C)n(C(F)F)c4=O)c(F)cc3s2)cc1 (stereo not drawn) [Compound 105]	B (80 ≦ B < 90%)	D (50 ≦ D < 60%)	B (80 ≦ B < 90%)	C (60 ≦ C < 80%)	B (80 ≦ B < 90%)	B (80 ≦ B < 90%)	–
Cc1ccc([N+](=O)[O-])c(C[S+]([O-])c2nc3cc(-n4nc(C)n(C(F)F)c4=O)c(F)cc3s2)c1 (stereo not drawn) [Compound 106]	B (80 ≦ B < 90%)	D (50 ≦ D < 60%)	D (50 ≦ D < 60%)	D (50 ≦ D < 60%)	B (80 ≦ B < 90%)	A (90 ≦ A ≦ 100%)	–
Cc1nn(-c2cc3nc([S+]([O-])Cc4cccc(Cl)c4)sc3cc2Cl)c(=O)n1C(F)F (stereo not drawn) [Compound 107]	D (50 ≦ D < 60%)	B (80 ≦ B < 90%)	A (90 ≦ A ≦ 100%)	B (80 ≦ B < 90%)	A (90 ≦ A ≦ 100%)	B (80 ≦ B < 90%)	–
Cc1nn(-c2cc3nc([S+](C)[O-])sc3cc2Br)c(=O)n1C(F)F (stereo not drawn) [Compound 108]	B (80 ≦ B < 90%)	A (90 ≦ A ≦ 100%)	B (80 ≦ B < 90%)	B (80 ≦ B < 90%)	A (90 ≦ A ≦ 100%)	E (E < 50%)	–
CC[S+]([O-])c1nc2cc(-n3nc(C)n(C(F)F)c3=O)c(Br)cc2s1 (stereo not drawn) [Compound 109]	B (80 ≦ B < 90%)	A (90 ≦ A ≦ 100%)	B (80 ≦ B < 90%)	B (80 ≦ B < 90%)	A (90 ≦ A ≦ 100%)	A (90 ≦ A ≦ 100%)	–
CCC[S+]([O-])c1nc2cc(-n3nc(C)n(C(F)F)c3=O)c(Br)cc2s1 (stereo not drawn) [Compound 110]	C (60 ≦ C < 80%)	A (90 ≦ A ≦ 100%)	B (80 ≦ B < 90%)	B (80 ≦ B < 90%)	B (80 ≦ B < 90%)	B (80 ≦ B < 90%)	–

Reference: patent US7666890B2, “Synthesis and herbicidal activity of 1- (2-substituted benzo[d]thiazol-5-yl)-1H-1,2,4-triazol-5(4H)-one derivatives” (Huazhong Normal University, priority 2007, dated 2010)
